Results published in PMC7462607 (eLife, 2020).

Columns and labels:
Format in all cases: binding
[1] = target: T1, DDB1ΔBPB (Homo sapiens, UniProt Q16531, DEL400-704); experiment: Differential Scanning Fluorimetry (DSF), DDB1ΔBPB; settings: 50 µM HQ461
T1 construct: Strep-tag (N); 8xHis (N); made in house; host or cells: Sf9
Method: CDK12KD/CCNKΔC (WT or G731E/R) and DDB1ΔBPB were diluted to 5 μM with DSF assay buffer (50 mM HEPES pH 7.5, 300 mM NaCl, 0.5 mM TCEP). 50 µM HQ461 or 10 µM HBx was added to diluted proteins (final DMSO concentration 0.25%). Twenty µL of protein-compound mix was aliquoted per qPCR tube (Labtidebiotech, Shanghai, China, P01-0803E) followed by the addition of 5 µL of 1:400 diluted SYPRO Orange (Sigma-Aldrich, MO, USA, S5692). After incubation on ice for 20 min, fluorescence measurements were performed using a Bio-Rad CFX96 Realtime PCR instrument. During the DSF experiment, the temperature was increased from 10°C to 95°C at an increment of 0.5 °C with equilibration time of 10 s at each temperature prior to measurement. Tm was defined as the temperature corresponding to the maximum value of the first derivative of fluorescence transition.

[2] = target: T2, 3xFLAG-CDK12/CCNK and DDB1 (Homo sapiens, UniProt Q9NYV4); experiment: Co-immunoprecipitation of CCNK and DDB1 with 3xFLAG-CDK12 complex; settings: A549 3xFLAG-CDK12 knock-in lysates
T2 construct: A549 3xFLAG-CDK12 knock-in cells were detached from plates by scraping; endogenous in cells; host or cells: A549 3xFLAG-CDK12 knock-in cells (lysate)
T2 sequence (Q9NYV4 whole entry): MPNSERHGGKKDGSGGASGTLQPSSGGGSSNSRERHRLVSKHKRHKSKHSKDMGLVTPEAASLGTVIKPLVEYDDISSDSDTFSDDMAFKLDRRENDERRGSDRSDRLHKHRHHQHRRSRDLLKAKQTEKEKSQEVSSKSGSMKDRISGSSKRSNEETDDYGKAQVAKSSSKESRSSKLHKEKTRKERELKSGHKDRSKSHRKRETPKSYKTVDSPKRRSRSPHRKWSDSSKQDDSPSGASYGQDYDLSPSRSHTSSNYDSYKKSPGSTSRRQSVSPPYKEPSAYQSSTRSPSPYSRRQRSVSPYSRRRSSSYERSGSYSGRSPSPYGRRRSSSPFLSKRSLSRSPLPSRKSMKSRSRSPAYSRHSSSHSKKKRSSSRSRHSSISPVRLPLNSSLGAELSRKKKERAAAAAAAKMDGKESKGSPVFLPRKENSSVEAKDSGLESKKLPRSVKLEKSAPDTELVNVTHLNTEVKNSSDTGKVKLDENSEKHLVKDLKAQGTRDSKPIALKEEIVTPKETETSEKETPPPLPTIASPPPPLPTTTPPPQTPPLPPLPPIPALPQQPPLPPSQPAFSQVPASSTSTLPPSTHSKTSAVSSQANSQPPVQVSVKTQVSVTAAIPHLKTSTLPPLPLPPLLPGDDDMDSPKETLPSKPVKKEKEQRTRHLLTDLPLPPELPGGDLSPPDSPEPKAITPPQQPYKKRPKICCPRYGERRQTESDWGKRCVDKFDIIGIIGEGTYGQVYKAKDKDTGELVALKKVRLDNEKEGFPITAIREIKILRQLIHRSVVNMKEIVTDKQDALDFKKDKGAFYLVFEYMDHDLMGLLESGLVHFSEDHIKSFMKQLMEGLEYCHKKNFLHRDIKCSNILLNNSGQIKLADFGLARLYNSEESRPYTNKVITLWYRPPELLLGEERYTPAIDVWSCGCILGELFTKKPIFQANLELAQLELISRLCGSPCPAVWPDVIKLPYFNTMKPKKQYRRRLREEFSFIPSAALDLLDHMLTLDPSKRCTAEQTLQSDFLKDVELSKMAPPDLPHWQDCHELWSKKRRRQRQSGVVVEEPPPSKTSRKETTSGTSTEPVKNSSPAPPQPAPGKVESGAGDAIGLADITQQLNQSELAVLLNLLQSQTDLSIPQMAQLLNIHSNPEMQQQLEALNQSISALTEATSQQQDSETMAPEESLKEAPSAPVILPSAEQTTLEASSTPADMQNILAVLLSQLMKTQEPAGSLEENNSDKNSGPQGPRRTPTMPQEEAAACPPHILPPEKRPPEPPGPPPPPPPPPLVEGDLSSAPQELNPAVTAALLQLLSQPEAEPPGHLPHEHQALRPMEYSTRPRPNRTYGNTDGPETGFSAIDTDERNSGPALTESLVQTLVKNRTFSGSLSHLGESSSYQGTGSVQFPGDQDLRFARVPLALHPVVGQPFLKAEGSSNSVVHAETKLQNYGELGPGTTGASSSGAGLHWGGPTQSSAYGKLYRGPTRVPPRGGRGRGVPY
T2 sequence (O75909 whole entry partner): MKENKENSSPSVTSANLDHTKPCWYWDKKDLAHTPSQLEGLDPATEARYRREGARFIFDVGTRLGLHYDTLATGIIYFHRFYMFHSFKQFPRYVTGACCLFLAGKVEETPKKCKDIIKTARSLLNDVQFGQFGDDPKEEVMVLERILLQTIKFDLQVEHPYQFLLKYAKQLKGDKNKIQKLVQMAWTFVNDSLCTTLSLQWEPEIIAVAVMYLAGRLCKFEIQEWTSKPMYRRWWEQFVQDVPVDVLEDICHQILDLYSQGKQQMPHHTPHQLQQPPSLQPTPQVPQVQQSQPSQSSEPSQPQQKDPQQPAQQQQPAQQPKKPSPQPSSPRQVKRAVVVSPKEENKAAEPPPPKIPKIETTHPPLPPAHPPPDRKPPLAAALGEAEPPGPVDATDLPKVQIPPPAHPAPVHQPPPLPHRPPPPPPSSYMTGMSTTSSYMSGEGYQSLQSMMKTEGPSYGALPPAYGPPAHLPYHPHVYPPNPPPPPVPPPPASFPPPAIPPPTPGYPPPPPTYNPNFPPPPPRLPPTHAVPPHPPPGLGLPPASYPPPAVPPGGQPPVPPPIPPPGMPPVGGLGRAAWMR
T2 sequence (Q16531 2-1140 partner limits assumed): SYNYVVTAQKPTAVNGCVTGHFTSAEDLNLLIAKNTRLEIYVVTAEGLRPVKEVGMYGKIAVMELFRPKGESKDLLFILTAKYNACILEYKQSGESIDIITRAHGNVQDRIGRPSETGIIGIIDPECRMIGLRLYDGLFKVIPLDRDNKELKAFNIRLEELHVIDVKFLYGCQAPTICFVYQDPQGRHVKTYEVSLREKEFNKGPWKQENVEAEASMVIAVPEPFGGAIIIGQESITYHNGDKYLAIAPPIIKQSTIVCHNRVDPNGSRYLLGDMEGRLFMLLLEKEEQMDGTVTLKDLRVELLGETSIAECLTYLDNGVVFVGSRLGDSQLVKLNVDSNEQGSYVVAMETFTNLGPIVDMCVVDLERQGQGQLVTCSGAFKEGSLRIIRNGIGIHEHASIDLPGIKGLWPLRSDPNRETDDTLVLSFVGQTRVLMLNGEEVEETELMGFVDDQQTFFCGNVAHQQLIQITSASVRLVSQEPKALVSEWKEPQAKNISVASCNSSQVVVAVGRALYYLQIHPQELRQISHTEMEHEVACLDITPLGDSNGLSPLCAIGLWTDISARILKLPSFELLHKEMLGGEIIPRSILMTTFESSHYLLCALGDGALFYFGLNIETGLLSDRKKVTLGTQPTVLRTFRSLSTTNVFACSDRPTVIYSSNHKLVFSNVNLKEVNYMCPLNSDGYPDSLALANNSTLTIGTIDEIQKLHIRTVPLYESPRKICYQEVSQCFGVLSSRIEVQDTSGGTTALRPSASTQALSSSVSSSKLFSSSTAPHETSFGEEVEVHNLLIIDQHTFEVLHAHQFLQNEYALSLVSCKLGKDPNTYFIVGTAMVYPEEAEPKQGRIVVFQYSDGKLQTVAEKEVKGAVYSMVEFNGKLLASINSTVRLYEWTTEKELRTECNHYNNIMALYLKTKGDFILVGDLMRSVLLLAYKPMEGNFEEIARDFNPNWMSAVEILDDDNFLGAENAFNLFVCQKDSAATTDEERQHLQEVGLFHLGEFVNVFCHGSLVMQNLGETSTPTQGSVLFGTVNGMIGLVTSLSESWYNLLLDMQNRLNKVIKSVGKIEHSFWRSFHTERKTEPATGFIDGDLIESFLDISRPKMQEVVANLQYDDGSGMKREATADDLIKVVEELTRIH
Method: Anti-FLAG M2 antibody (Sigma-Aldrich, MO, USA F3165) was coupled to magnetic epoxy beads (Beijing Yunci Technology Co., Beijing, China) at the ratio of 10 μg of anti-FLAG antibody/mg of beads in the presence of 1 M ammonium acetate and 0.1 M sodium phosphate, pH 7.4 at 37°C overnight. A549 3xFLAG-CDK12 knock-in cells were detached from plates by scraping, washed in DPBS, and then frozen in liquid nitrogen. Frozen cells were pulverized using a mixer mill MM 400 (Retsch, Haan, Germany) with two rounds of 1 min ball milling at 30 Hz. Per experiment, 25 mg of grinded cell powder was solubilized with 250 µL of IP buffer (50 mM HEPES, pH 7.4, 300 mM NaCl, 0.1% Tween-20) supplemented with 1x cOmplete, Mini, EDTA-free protease inhibitor cocktail (Roche, Bazel, Switzerland). The resulting lysates were centrifuged at 15,000 g for 10 min at 4°C. Clarified lysates were supplemented with HQ461 or DMSO and incubated at 4°C for 30 min. Afterwards, 0.2 mg of anti-FLAG-conjugated magnetic beads were mixed with clarified lysates for 15 min on a rotating platform at 4°C, followed by three washes with IP buffer supplemented with HQ461 or DMSO. Bound proteins were eluted from magnetic beads with 1 mg/ml of 3 × FLAG peptide (Sigma-Aldrich, MO, USA F4799) with agitation at 4°C for 30 min. Eluted proteins were subjected to SDS-PAGE and western blotting with anti-FLAG-HRP, anti-CCNK, and anti-DDB1. […]

[3] = target: T3, FLAG-DDB1/CDK12KD/CCNKΔC (Homo sapiens, UniProt Q9NYV4); experiment: FLAG-DDB1:CDK12KD/CCNKΔC pull down assay
T3 construct: Human CDK12KD (residues 715–1052); 6xHis (PreScission site) (N, cleaved yes); made in house; host or cells: Sf9 or High Five (CDK12KD/CCNKΔC, co-infected with yeast CAK1); 293F (FLAG-Avi-DDB1)
Method: FLAG-Avi-DDB1 (18.2 µg) was mixed with CDK12KD/CCNKΔC (10 µg) at 1:1 molar ratio in 500 μL of pulldown assay buffer containing 50 mM HEPES, pH 7.5, 300 mM NaCl, 0.5 mM TCEP. The protein mix was then supplemented with DMSO or HQ461. After 30 min of incubation on ice, the protein-compound mix was incubated with anti-FLAG M2 affinity gel for another 30 min on a rotator at 4 °C. Protein-bound beads were washed three times with the pulldown assay buffer and bound proteins were eluted with 0.2 mg/mL FLAG peptide. Eluted proteins were analyzed by SDS-PAGE followed by coomassie blue staining.

T1 sequence (Q16531 with tags, fused parts or gaps DEL400-704): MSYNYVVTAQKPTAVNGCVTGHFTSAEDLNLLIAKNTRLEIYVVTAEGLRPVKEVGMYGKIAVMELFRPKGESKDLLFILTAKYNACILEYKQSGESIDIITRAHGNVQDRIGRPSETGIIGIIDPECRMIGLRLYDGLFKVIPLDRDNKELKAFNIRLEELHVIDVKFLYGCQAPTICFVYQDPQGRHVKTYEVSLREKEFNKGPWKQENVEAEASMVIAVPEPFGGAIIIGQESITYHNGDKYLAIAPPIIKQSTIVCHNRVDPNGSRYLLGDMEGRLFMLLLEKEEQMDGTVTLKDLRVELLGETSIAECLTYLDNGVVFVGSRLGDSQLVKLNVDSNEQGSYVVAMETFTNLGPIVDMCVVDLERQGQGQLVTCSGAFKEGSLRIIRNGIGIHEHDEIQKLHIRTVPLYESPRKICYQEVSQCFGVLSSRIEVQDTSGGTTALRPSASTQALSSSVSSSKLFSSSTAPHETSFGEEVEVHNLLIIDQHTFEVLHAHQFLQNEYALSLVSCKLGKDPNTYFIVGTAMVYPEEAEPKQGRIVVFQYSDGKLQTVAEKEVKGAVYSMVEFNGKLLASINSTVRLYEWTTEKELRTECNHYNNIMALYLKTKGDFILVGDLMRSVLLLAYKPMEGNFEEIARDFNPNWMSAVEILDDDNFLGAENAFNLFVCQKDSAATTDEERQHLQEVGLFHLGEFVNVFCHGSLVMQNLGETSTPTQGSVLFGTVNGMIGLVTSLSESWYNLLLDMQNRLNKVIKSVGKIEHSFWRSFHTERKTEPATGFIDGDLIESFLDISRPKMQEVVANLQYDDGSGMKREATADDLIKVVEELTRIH

Structure (SMILES): Cc1cccc(Nc2nc(CC(=O)Nc3ncc(C)s3)cs2)n1 [HQ461, 2-(2-((6-methylpyridin-2-yl)amino)thiazol-4-yl)-N-(5-methylthiazol-2-yl)acetamide]
- thermal stability of DDB1ΔBPB [1]: did not change the thermal stability
- recruitment of DDB1 to CDK12/CCNK (coimmunoprecipitation) [2]: DDB1 was only detected with the CDK12/CCNK complex isolated from lysates treated with HQ461
- complex formation of DDB1 with CDK12KD/CCNKΔC (pulldown) [3]: near-stoichiometric complex
